Reference: PubChem BioAssay (NCI)
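Compound exposure: 48 hours, 5 concentrations, 96-well plates. GI50: concentration for 50% inhibition of growth. TGI is the concentration that stops growth completely.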

Columns and labels:
Assay in all cases: NCI anticancer screen, dose series, 48 h
[1] = test system: A549 NSCLC
[2] = test system: MALME-3M melanoma
[3] = test system: MOLT-4 leukemia
[4] = test system: NCI-H226 lung
[5] = test system: PC-3 prostate
[6] = test system: RXF 393 renal
[7] = test system: SF-295 CNS
[8] = test system: SR leukemia
[9] = test system: SW-620 colon
[10] = test system: TK-10 renal

Structure (SMILES) | GI50 [1] [µM] | TGI [1] [µM] | GI50 [2] [µM] | TGI [2] [µM] | GI50 [3] [µM] | TGI [3] [µM] | GI50 [4] [µM] | TGI [4] [µM] | GI50 [5] [µM] | TGI [5] [µM] | GI50 [6] [µM] | TGI [6] [µM] | GI50 [7] [µM] | TGI [7] [µM] | GI50 [8] [µM] | TGI [8] [µM] | GI50 [9] [µM] | TGI [9] [µM] | GI50 [10] [µM] | TGI [10] [µM]
O=C(NC1CCN(Cc2ccccc2)CC1)c1cc(C(=O)NC2CCN(Cc3ccccc3)CC2)cc(C(=O)NC2CCN(Cc3ccccc3)CC2)c1 | 6.68 | 15.4 | 1.12 | 2.52 | 1.22 | 3.16 | 14.7 | > 50 | 7.73 | 19.5 | 2.16 | 10.2 | 6.76 | 15.6 | 8.74 | 26.2 | 3.86 | 13 | 18.3 | > 50
O=c1ccccc(-c2ccc(-c3ccco3)cc2)c1O | 1.39 | 47.5 | 2.77 | 26.3 | 0.501 | 51.5 | 2.31 | 23 | 1.46 | 31.8 | 0.951 | 17.2 | 0.555 | 13.6 | 0.581 | 19.8 | 0.438 | 29.1 | 0.819 | 82.9
CC(C)(C)N1CC(OC(N)=O)C1 | > 100 | > 100 | > 100 | > 100 | > 100 | > 100 | > 100 | > 100 | > 100 | > 100 | > 100 | > 100 | > 100 | > 100 | > 100 | > 100 | > 100 | > 100 | > 100 | > 100
N#Cc1nn(C2OC(COC(=O)c3ccccc3)C(OC(=O)c3ccccc3)C2OC(=O)c2ccccc2)c2nc[nH]c(=O)c12 (stereo unspecified) |  | > 100 |  | 90.4 |  | 95.4 |  | > 100 |  | > 100 |  | > 100 |  | > 100 |  | 94.4 |  | > 100 |  | > 100
Oc1cccc(Cn2c(-c3cccc(O)c3O)nc3ccccc32)c1O | 14.1 | 40.9 |  |  | 3.21 | > 100 | 3.95 | 21.9 | 6.69 | 34.2 | 5.82 | 25.4 | 1.88 | 10.5 | 3.42 | > 100 | 6.82 | 60.1 | 1.88 | 7.52
O=C1/C(=C/c2ccccc2)CN(CCC(=O)N2C/C(=C\c3ccccc3)C(=O)/C(=C/c3ccccc3)C2)C/C1=C\c1ccccc1 | 29.3 | > 100 | 22.3 | 64.3 | 2.6 | > 100 | 12.7 | 41.3 | 6.02 | > 69.9 | 6.65 | 19.9 | 14.2 | 30 | 0.295 | > 100 | 0.495 | 49.8 | 18.3 | 43.9
O=C(O[C@H]1CN[C@H](C#Cc2cc3ncnc(Nc4ccc(OCc5cccc(F)c5)c(Cl)c4)c3s2)C1)N1CCOCC1 | 6 | > 25 | 4.95 | 10.2 | 6 | 23.2 | 5.32 | 12 | 4.93 | > 25 | 5.85 | > 16.6 | 9 | > 25 | 8.01 | > 23.7 | 12.2 | > 25 | 0.17 | 8.41
CC1(C)CCC2(C(=O)O)CC[C@]3(C)C(=CCC4C5(C)CC[C@H](OC6OC(C(=O)O)C(O)C(OC7OC(CO)C(O)C(O)C7O)C6OC6OC(CO)C(O)C(O)C6O)C(C)(C)C5CCC43C)C2C1 (stereo partly specified) | > 100 | > 100 |  |  | 86.3 | > 100 | > 100 | > 100 | 20.6 | 38.5 | > 100 | > 100 | 31.1 | > 100 | 15.6 | > 100 | > 100 | > 100 | > 100 | > 100
COc1ccccc1N1CCN(C(=O)c2ccc(NS(=O)(=O)c3cccc4cccnc34)cc2)CC1 | > 100 | > 100 | > 100 | > 100 | > 100 | > 100 | > 33.2 | > 100 | > 100 | > 100 | 5.02 | 59.4 | > 39 | > 100 | > 100 | > 100 | > 100 | > 100 | > 64.1 | > 100
COc1ccc(-c2nc(N)c3ncn(C4OC(CO)C(O)C4O)c3n2)cc1 (stereo unspecified) |  | > 100 |  | > 100 |  | > 100 |  | > 100 |  | > 100 |  | > 100 |  | > 100 |  | > 100 |  | > 100 |  | > 100
Cc1ccc(C(=O)CCC2C(=O)CC(C)(C)CC2=O)cc1 |  | > 100 |  |  |  | > 100 |  | > 100 |  | > 100 |  | > 100 |  | > 100 |  | 65.5 |  | > 100 |  | > 100
COc1cccc(-c2nc(-c3ccc(NC(=O)c4ccccc4)cc3)[nH]c2-c2ccnc(Br)c2)c1 | 4.07 | > 100 | 2.86 | > 100 | 2.7 | > 100 | 2.95 | > 100 | 3.25 | > 100 | 0.266 | 0.81 |  |  | 1.94 | > 100 | 3.77 | > 100 | 6.92 | > 100
C/C=C1\C(=O)O[C@@H]2C1C[C@@H]1O[C@H]2[C@H](C)CCC/C(C)=C/CC[C@@]1(C)O (stereo partly specified) | 10.6 | 22.5 | 3.47 | 18.5 | 4.59 | > 100 |  |  | 11.8 | 25.8 | 2.59 | 6.99 | 13.3 | 27.6 | 2.41 | > 100 | 4.14 | 15 | 4.46 | 13.5
CCOC(=O)C#Cc1ccc([N+](=O)[O-])cc1 |  | 27 |  |  |  | 5.22 |  | 7.78 |  | 8.54 |  | 2.63 |  | 25.6 |  | 5.27 |  | 7.43 |  | 27.4
O=C1/C=C/[C@@H](O)[C@@H]2C[C@@H](O)C[C@H]2/C=C/CCC[C@H](CO)O1 | 3.65 | > 100 | 1.93 | 7.19 | 3.11 | > 100 | 1.21 | 2.74 | 2.5 | > 100 | 1.61 | 5.04 |  |  | 2.5 | > 100 | 2.32 | 6.81 | 3.06 | 10.9
COc1ccc(-c2csc(NC(=O)N3CCN(c4cc5c(cc4F)c(=O)c(C(=O)O)cn5C4CC4)CC3)n2)cc1 | 3.43 | > 100 |  |  | 2.54 | 9.42 | 2.95 | > 100 | 2.98 | > 100 | 3.03 | 23.4 | 2.25 | 8.79 | 1.93 | 13 | 5.04 | > 100 | 6.93 | 37
COc1cc2c(=O)n(CCCn3ccnc3)c3c4cc5c(cc4ccc3c2cc1OC)OCO5 | 1.96 | > 100 | 2.02 | > 100 |  |  | 0.246 | > 100 | 0.774 | > 100 | 0.316 | 14.3 | 0.331 | 12.5 | 0.203 | > 100 | 0.49 | > 100 | 36 | > 100
C#Cc1cccc(Nc2ncnc3ccc(-c4cnc(Cl)c(NS(C)(=O)=O)c4)cc23)c1 | 0.725 | 4.83 | 0.0924 | 0.862 | 0.244 | 1.53 | 0.564 | 4.3 | 0.297 | 2.82 | 0.218 | 0.996 | 0.376 | 2.17 | 0.338 | 6.35 | 0.467 | 5.65 |  | 
N=C1C(c2nc3ccccc3s2)=C(O)CN1c1ccc(Cl)cc1Cl | 11.6 | 35.6 |  |  | 22.7 | > 100 | 16.9 | 40.7 | 11.5 | 29 | 10.8 | 36.1 | 12.7 | 52.4 | 1.49 | 34.6 | 36.7 | > 100 | 14.4 | 42.8
CN(C)Cc1cccc(CN(C)C)[c]1[Sn]([Br])([c]1ccccc1)[c]1ccccc1 | 17 | 60.1 | 12.6 | 27.4 | 5.02 | 20.5 |  |  | 17.1 | 96.9 |  |  | 14.8 | 32.1 | 2.36 | 12 | 13.5 | 29.7 | 17.2 | 46.9
